Activity calls are given as the source filed them.
Assays:
[1] = molecular target: T1, Tyrosine-protein phosphatase non-receptor type 7 (Homo sapiens, UniProt P35236); test: SAR analysis of chemical inhibitors of HePTP using a Fluorescent assay - Set 2. [Related pubchem assays (depositor defined):AID1059, AID1077, AID1661, AID2085, AID521]; assay type: functional
T1 sequence (P35236 whole entry): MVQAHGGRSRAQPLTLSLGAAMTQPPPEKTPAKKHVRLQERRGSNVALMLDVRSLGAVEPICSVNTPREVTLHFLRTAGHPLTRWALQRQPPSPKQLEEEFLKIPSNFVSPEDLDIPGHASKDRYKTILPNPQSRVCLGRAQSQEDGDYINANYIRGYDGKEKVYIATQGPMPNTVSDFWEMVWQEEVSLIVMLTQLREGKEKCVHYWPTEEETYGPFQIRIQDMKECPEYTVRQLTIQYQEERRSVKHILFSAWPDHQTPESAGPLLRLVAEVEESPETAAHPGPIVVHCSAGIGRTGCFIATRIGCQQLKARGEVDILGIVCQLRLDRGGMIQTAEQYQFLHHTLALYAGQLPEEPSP

[2] = molecular target: Dual specificity protein phosphatase 3 (Homo sapiens, UniProt P51452); test: SAR VHR1 Fluorescent Assay for In Vitro dose response studies Set 2. [Related pubchem assays (depositor defined):AID1654, AID1661, AID1878]; assay type: functional
Chain of Dual specificity protein phosphatase 3 (P51452 whole entry): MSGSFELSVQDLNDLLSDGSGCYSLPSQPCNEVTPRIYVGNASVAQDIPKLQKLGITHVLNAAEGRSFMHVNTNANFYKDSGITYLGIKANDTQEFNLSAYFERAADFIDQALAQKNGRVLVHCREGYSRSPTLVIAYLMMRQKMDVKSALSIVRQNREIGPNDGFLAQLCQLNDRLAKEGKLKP

[3] = molecular target: G-protein coupled receptor 55 (Homo sapiens, UniProt Q9Y2T6); test: GPR55 antagonists blocking LPI-driven arrestin recruitment, primary screen, imaging, U2OS, beta-arrestin-GFP, LPI agonist (AID 2013); assay type: functional;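 further: antagonist potency measured as reduced agonist-driven arrestin aggregation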
Chain of G-protein coupled receptor 55 (Q9Y2T6 whole entry): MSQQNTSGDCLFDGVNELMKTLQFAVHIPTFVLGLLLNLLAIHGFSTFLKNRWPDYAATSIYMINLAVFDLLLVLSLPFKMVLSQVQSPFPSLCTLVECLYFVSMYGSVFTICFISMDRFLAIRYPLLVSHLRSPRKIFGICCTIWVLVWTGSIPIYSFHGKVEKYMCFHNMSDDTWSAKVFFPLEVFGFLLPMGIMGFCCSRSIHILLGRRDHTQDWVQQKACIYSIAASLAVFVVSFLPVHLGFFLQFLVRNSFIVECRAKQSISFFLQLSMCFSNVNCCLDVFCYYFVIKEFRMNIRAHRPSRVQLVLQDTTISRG

[4] = molecular target: T2, Heat shock factor protein 1 (Mus musculus, UniProt P38532); test: HSF1 potentiators in luciferase reporter cells, confirmation, cell-based, NIH3T3, luminescence, dose retest (AID 435004); assay type: functional;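 further: stress induced by proteasome inhibitor MG132 added 30 min after compound; luciferase reporter driven by HSF1 response element in NIH3T3 cells; actives raise luminescence as potentiators of the MG132 stress response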
T2 sequence (P38532 whole entry): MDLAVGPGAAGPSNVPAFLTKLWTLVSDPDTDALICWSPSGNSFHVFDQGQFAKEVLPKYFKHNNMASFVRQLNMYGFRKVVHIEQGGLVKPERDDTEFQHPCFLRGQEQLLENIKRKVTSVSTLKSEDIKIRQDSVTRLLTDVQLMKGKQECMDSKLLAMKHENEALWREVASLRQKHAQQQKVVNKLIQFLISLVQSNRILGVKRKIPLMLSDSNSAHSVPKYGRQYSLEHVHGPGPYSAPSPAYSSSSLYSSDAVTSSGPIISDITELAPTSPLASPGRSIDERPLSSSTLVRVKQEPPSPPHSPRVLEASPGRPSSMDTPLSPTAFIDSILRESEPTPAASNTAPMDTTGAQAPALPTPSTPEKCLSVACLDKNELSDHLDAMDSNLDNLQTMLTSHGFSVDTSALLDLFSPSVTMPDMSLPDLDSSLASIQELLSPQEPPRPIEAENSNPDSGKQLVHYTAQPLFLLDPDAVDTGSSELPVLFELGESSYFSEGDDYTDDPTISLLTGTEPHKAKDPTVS

[5] = molecular target: T3, Replicative DNA helicase DnaB (Mycobacterium tuberculosis, UniProt P9WMR3); test: DnaB intein splicing inhibitors, dose response, biochemical, cell-free fluorescence (AID 449749); assay type: functional
T3 sequence (P9WMR3 whole entry): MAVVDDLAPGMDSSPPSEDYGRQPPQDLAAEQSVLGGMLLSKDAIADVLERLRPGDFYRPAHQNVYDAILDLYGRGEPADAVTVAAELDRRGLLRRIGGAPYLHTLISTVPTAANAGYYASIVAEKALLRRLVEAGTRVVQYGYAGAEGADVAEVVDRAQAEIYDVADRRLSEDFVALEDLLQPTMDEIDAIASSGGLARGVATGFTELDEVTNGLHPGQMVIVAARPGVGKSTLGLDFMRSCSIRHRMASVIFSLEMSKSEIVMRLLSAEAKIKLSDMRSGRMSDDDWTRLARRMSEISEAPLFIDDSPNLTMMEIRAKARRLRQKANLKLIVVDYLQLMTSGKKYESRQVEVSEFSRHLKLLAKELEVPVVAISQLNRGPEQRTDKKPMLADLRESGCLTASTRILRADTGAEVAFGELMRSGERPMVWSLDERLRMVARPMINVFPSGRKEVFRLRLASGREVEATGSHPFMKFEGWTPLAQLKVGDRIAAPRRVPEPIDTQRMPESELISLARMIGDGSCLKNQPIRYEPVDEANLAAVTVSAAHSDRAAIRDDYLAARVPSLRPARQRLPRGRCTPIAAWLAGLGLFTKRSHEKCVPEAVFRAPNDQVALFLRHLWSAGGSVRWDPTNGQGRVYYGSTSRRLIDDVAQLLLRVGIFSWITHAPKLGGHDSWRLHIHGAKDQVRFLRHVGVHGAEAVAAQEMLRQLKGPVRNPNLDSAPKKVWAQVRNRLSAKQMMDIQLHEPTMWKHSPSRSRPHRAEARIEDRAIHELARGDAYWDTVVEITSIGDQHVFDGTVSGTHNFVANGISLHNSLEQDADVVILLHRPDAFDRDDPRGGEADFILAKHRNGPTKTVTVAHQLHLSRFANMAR

Protein RecA = molecular target: T4, Protein RecA (Mycobacterium tuberculosis, UniProt P9WHJ3); test: Fluorescence Cell-Free Homogeneous Dose Retest to Identify Inhibitors of RecA-Intein Splicing Activity. [Related pubchem assays (depositor defined):AID2097, AID2223, AID489010, AID492950]; assay type: functional
T4 sequence (P9WHJ3 whole entry): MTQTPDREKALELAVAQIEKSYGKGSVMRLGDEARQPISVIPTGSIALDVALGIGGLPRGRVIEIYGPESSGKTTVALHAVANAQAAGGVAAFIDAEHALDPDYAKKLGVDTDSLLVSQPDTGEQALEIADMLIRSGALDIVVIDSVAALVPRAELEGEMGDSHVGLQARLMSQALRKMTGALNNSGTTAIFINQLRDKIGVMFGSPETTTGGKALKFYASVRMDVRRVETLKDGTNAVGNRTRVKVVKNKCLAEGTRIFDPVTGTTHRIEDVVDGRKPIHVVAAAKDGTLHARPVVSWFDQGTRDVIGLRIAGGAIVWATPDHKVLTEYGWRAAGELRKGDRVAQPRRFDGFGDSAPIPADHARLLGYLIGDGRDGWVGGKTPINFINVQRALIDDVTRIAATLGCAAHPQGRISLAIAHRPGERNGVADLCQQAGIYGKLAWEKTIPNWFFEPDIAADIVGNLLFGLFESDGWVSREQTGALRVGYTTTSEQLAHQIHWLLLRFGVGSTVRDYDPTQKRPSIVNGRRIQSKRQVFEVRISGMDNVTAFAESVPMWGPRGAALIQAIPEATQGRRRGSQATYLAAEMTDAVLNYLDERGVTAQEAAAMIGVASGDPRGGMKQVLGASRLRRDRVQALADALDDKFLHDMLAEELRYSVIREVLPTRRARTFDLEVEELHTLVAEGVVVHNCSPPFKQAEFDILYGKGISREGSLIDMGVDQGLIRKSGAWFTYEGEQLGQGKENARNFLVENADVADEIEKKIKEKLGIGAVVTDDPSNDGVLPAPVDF

Caspase-3 = molecular target: T5, Caspase-3 (Homo sapiens, UniProt P42574); assay type: functional;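 further: Dose-response selectivity test against caspase-3 for candidate inhibitors of sentrin-specific proteases (SENPs)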
T5 sequence (P42574 whole entry): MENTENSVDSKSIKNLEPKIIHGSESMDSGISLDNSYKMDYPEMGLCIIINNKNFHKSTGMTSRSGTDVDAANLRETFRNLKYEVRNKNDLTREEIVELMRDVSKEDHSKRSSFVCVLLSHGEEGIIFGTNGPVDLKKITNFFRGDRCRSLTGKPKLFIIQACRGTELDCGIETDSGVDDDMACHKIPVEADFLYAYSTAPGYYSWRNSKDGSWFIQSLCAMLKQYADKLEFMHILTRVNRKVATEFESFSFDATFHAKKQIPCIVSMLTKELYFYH

[6] = molecular target: T6, Sentrin-specific protease 7 (Homo sapiens, UniProt Q9BQF6); assay type: functional;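 further: Luminescence-based dose-response confirmation of ultra-high-throughput screening hits, measuring inhibition of SENP7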
T6 sequence (Q9BQF6 whole entry): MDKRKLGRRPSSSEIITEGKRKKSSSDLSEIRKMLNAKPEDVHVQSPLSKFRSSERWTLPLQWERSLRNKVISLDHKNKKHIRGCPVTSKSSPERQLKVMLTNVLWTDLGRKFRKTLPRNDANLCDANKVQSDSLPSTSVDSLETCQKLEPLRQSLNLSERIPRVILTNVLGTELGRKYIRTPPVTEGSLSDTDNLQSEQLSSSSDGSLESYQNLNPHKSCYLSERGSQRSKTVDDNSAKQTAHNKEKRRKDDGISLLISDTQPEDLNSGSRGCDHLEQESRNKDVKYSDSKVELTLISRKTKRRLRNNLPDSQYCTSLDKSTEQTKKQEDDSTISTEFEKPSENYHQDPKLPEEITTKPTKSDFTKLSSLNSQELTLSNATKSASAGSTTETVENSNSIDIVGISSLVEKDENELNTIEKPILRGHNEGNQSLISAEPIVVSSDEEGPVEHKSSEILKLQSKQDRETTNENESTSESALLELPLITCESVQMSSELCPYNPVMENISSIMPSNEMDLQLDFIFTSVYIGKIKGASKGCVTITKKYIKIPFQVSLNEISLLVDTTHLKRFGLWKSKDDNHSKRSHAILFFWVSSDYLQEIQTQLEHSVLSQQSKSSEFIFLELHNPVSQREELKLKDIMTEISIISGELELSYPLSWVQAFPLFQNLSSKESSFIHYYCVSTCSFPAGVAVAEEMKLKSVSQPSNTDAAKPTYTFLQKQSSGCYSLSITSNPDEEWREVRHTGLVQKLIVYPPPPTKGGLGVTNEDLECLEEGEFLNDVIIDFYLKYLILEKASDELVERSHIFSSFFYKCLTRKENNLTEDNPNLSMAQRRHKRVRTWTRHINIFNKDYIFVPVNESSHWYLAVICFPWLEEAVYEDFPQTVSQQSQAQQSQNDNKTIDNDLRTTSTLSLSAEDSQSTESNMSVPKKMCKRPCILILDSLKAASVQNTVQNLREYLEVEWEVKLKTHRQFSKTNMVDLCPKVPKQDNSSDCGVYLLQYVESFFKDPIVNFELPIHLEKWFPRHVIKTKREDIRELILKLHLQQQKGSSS

[7] = molecular target: T7, Sentrin-specific protease 6 (Homo sapiens, UniProt Q9GZR1); assay type: functional;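 further: Luminescence-based dose-response confirmatory assay of SENP6 inhibition, following up an ultra-high-throughput screen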
T7 sequence (Q9GZR1 whole entry): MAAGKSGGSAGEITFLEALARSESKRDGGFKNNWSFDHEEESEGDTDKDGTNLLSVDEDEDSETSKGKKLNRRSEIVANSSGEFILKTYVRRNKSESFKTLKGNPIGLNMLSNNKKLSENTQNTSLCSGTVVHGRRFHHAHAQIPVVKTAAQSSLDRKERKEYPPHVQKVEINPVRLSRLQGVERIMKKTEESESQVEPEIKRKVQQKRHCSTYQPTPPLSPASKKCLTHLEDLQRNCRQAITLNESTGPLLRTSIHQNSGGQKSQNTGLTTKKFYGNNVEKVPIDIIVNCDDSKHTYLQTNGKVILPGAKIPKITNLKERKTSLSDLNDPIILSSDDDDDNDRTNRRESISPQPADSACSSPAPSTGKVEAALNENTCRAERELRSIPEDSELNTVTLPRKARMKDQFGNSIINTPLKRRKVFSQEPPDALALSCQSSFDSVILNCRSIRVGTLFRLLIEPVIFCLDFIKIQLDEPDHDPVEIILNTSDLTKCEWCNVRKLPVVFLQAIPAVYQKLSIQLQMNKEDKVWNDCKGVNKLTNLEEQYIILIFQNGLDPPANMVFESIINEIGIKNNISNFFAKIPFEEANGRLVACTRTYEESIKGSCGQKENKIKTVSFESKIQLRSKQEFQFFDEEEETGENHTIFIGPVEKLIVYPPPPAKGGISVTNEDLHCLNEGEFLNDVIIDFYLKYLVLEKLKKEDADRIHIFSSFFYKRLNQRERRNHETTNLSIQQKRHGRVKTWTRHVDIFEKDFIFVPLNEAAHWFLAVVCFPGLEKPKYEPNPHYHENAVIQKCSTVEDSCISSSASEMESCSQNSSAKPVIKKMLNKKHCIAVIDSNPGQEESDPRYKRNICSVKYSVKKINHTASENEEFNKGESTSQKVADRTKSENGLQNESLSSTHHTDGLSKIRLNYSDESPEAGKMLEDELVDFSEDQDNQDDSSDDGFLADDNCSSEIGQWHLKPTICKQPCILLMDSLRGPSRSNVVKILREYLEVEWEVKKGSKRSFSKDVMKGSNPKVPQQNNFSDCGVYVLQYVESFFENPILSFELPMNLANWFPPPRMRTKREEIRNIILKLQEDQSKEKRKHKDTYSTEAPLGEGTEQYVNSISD

[8] = molecular target: T8, Sentrin-specific protease 8 (Homo sapiens, UniProt Q96LD8); assay type: functional;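 further: luminescence read-out of SENP8 inhibition, dose-response confirmation following an ultra-high-throughput screen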
T8 sequence (Q96LD8 whole entry): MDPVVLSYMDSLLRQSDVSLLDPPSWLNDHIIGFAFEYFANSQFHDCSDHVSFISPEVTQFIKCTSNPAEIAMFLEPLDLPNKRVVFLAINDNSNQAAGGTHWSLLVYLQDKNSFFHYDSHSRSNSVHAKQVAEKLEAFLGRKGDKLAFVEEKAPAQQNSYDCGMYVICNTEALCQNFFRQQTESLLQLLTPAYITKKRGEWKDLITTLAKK

HEK293 = test: inhibitors of LMP1-driven NF-kB reporter, dose response, cell-based, HEK293, luciferase, cherry-pick (AID 588343); assay type: functional; details: Homo sapiens
cells = assay type: functional, cell-based
[9] = molecular target: Nuclear receptor subfamily 0 group B member 1 (Homo sapiens, UniProt P51843); assay type: functional, cell-based;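 further: HEK293T cells transfected with SF-1 and DAX-1 plus StAR promoter luciferase reporter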
Chain of Nuclear receptor subfamily 0 group B member 1 (P51843 whole entry): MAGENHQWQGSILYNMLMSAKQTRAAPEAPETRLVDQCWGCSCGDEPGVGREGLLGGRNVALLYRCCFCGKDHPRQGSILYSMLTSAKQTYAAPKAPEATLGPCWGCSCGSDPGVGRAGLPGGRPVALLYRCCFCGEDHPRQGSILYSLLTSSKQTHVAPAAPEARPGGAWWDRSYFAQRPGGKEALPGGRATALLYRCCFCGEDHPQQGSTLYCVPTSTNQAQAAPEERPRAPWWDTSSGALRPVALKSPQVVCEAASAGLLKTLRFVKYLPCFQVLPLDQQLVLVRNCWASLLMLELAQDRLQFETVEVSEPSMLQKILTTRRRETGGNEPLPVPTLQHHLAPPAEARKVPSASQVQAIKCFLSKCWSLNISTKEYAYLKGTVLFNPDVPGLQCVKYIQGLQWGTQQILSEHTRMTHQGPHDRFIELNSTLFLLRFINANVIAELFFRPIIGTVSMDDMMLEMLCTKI

[10] = molecular target: Glyceraldehyde-3-phosphate dehydrogenase (Homo sapiens, UniProt P04406)
Chain of Glyceraldehyde-3-phosphate dehydrogenase (P04406 whole entry): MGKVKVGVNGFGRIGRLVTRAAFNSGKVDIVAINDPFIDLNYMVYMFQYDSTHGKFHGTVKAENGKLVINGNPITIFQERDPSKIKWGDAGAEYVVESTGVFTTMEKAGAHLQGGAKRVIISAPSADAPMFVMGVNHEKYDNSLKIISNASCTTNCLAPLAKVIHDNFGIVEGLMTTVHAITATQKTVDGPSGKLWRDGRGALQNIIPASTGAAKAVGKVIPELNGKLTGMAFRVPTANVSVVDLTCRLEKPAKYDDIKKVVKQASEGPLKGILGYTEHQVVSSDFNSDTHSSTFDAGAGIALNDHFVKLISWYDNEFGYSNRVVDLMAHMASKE

[11] = molecular target: Alkaline phosphatase, placental type (Homo sapiens, UniProt P05187); test: PLAP enzyme inhibitors, confirmation, biochemical, luminescence (AID 1512); assay type: functional
Chain of Alkaline phosphatase, placental type (P05187 whole entry): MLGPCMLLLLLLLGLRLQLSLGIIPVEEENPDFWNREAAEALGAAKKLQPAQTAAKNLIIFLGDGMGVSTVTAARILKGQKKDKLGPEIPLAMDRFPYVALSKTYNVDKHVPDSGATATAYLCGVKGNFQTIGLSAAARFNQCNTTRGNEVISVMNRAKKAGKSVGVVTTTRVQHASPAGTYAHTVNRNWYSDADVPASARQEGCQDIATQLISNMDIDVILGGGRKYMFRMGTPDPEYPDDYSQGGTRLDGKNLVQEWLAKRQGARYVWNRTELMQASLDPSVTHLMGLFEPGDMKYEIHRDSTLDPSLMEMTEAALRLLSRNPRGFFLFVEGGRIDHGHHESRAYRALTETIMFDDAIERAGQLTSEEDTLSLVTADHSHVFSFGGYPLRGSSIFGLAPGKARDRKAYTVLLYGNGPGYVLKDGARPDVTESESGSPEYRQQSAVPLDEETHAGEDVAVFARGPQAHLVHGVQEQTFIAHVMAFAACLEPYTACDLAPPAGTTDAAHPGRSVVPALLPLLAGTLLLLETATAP

O=S(=O)(c1ccc(NC(=S)N2CCN(Cc3ccc4c(c3)OCO4)CC2)cc1)N1CCOCC1
IC50 [1]: 79.6 µM (active)
IC50 [2]: > 100 µM (inactive)

Clc1ncnc2scc(C3COc4ccccc4O3)c12 (stereo not given)
IC50 [3]: 3.38 µM (active)
EC50 [4]: 21.4 µM (active)
AC50 [5]: 7.16 µM (active)
EC50 (Protein RecA): 3.97 µM (active)

Cc1ccn2c(c1)nc(=S)n2C(=O)c1ccccc1
IC50 (Caspase-3): 46.5 µM (active)
IC50 [6]: 4.09 µM (active)
IC50 [7]: 72.3 µM (active)
IC50 [8]: 94.9 µM (active)
AC50 (HEK293): 0.814 µM (active)
IC50 (cells): > 67.5 µM (inactive)
IC50 [9]: > 0.0926 µM (active)

O=C(c1cc(-c2ccc(Cl)cc2Cl)n[nH]1)N1CCCCCC1
IC50 [10]: > 100 µM (not active)
IC50 [11]: > 100 µM (inactive)

From ChEMBL document CHEMBL1201862, “PubChem BioAssay data set” (2004)
